Test [1] can be described thus: MIC against ESKAPE pathogens, aerobic. The note with it: aerobic conditions, single concentration screen, n = 3; read-out: MIC ESKAPE bacteria. In kind it is cell-based. On the procedure: All compounds were tested for activity against a set of anaerobic C. difficile bacteria (630 ATCC BAA-1382, NAP1/027 M7404, NAP1/027 ATCC BAA-1803, VPI10463 ATCC 43255, CD26A54_S and CD26A54_R) and representative ESKAPE pathogens S. aureus (MRSA ATCC 43300), E. coli (ATCC 25922), K. pneumoniae (ATCC 700603), A. baumannii (ATCC 19606) and P. aeruginosa (ATCC 27853) using a standard broth microdilution assay. Selected compounds were tested for activity against H. pylori strains (26695, and clinical isolates MtzS 13/25, MtzR 98/285 and MtzR 13/61) using agar plate dilution, and for antimicrobial activity against twelve Gram-positive bacterial strains: Enterococcus faecalis (VanA clinical isolate), Enterococcus faecium (MDR VanA ATCC 51559), Streptococcus pneumoniae (MDR ATCC 700677), S. aureus (MRSA ATCC 43300, MRSA clinical isolate, MRSA/DRSA clinical isolate, GISA NARSA NRS 1, GISA NARSA NRS 17, VRSA NARSA VRS1, VRSA NARSA VRS4 and VRSA NARSA VRS10) using broth microdilution. C. difficile strains were grown at 37 °C in a COY anaerobic chamber (5% H2, 10% CO2, 85% N2). H. pylori strains were grown at 37 °C under a microaerobic atmosphere (5% O2, 10% CO2). All facultative anaerobic bacteria were grown at 37 °C with normal atmospheric oxygen levels. […] Positive growth control of bacteria and DMSO as well as a negative control of only media were included for every plate. Full assay details are provided in the supplementary information.
MICs were determined by a two-fold serial broth micro dilution according to the recommendation of CLSI standards with an inoculum of 5 × 10^5 CFU/mL^4 The compounds along with standard antibiotics were serially diluted twofold across the wells of 96-well non-binding surface plates (NBS, Corning). […] Gram-positive and Gram-negative bacteria were cultured in Mueller Hinton broth (MHB) (Bacto laboratories, Cat. no. 211443) at 37 °C overnight. A sample of each culture was then diluted 40-fold in fresh MHB broth and incubated at 37 °C for 2-3 h. The resultant mid-log phase cultures were diluted to the final concentration of 5 × 10^5 CFU/mL, then 50 μL was added to each well of the compound containing 96-well plates. All the plates were covered and incubated at 37 °C for 24 h.

Test [2] has as its system G. lamblia BRIS/87/HEPU/713 (713). Description: ATP-bioluminescence growth and survival assay, G. lamblia 713. It counts as cell-based. Conditions: Giardia duodenalis, read-out: EC50 G. lamblia 713. On the procedure:
(§1) Compounds were tested for antiparasitic activity against E. histolytica (HM1:1MSS strain) and G. lamblia (WB, BRIS/87/HEPU/713 (713), BRIS/83/HEPU/106 (106) and the metronidazole resistant syngeneic line 713-M3 [[15,16]]) using an ATP-bioluminescence based screen for cell growth and survival [[17,18]]. Assay plates were inoculated with trophozoites (5 × 10^3 parasites/well) and incubated in the GasPak™ EZ Anaerobe Gas Generating Pouch Systems (VWR, West Chester, PA) to maintain anaerobic conditions throughout the incubation period. The assays were performed in triplicate using the CellTiter-Glo Luminescent Cell Viability Assay. Metronidazole was used as a positive control.
(§2) Trophozoites of E. histolytica strain HM1:IMSS and G. lamblia strains WB, BRIS/87/HEPU/713 (713),^10 BRIS/83/HEPU/106 (106)^11 and the metronidazole resistant syngenic line 713-M3^10,11 were axenically maintained in TYI-S-33 medium supplemented with penicillin (100 U/ml), streptomycin (100 µg/ml).^12 E. histolytica and G. lamblia trophozoites were counted using a particle counter (Beckman Coulter, Fullerton, CA). All experiments were performed using trophozoites harvested during the logarithmic phase of growth.
(§3) A three-fold serial dilution was then performed yielding a concentration range 0.25-625 µM. From this dilution plate, 4 µL were transferred into the 96-well screen plates followed by addition of 96 µL of trophozoites (5,000 parasites) to yield a final 8-point concentration range spanning 0.01- 25 µM. Assay plates were incubated for 48 h at 37 °C in the GasPak^TM EZ Anaerobe Gas Generating Pouch Systems (VWR, West Chester, PA) to maintain anaerobic condition throughout the incubation period. The assays were performed in triplicate using the CellTiter-Glo Luminescent Cell Viability Assay.^13

For test [3], the system named is E. histolytica HM1:IMSS trophozoites. The test can be described thus: ATP-bioluminescence growth and survival assay, E. histolytica. It counts as cell-based, Entamoeba histolytica. The note with it: MtzS, 48 h, anaerobic, n = 3. On the procedure:
as §1, §2, §3

Test [4] has as its system G. lamblia BRIS/83/HEPU/106 (106). Description: ATP-bioluminescence growth and survival assay, G. lamblia 106. It counts as cell-based. Conditions: Giardia duodenalis, read-out: EC50 G. lamblia 106. As to the method: as §1, §2, §3
The mark [5] stands for this setting: MtzS, purified compounds, this study.

Like-named read-outs stand apart in the source and are kept apart here. Bounds are passed on as bounds.

Broadly, the MIC is the lowest concentration found to suppress growth. In general, EC50 refers to the concentration giving half of the maximal effect. Regarding `Cc1ncc([N+](=O)[O-])n1CCO` [Compound 1, metronidazole], the MIC in test [1] is over 32 µg/mL. In addition, the results for the EC50 in test [2] (setting [5]), in test [3] (Entamoeba histolytica) and in test [4] (setting [5]) were 2.3 µM, 5 µM and 2.8 µM, respectively.

In test [3], `Cc1ncc([N+](=O)[O-])n1CCN=[N+]=[N-]` [Compound 3, 1-(2-azidoethyl)-2-methyl-5-nitro-1H-imidazole] came in with an EC50 of 2.1 µM.

As to `Cc1ncc([N+](=O)[O-])n1CCn1cc(-c2ccccc2)nn1` [Compound 4a, 1-(2-(2-methyl-5-nitro-1H-imidazol-1-yl)ethyl)-4-phenyl-1H-1,2,3-triazole], in test [1], the MIC was over 32 µg/mL. Moreover, the EC50 in test [2] was found to be 0.16 µM; in test [3] (Entamoeba histolytica), 4.2 µM; in test [4], 0.28 µM.

For `COc1ccc(-c2cn(CCn3c([N+](=O)[O-])cnc3C)nn2)cc1` [Compound 4b, 1-(2-(2-methyl-5-nitro-1H-imidazol-1-yl)ethyl)-4-(4-methoxyphenyl)-1H-1,2,3-triazole], the MIC in test [1] was over 32 µg/mL. The EC50 is 0.64 µM in test [2], 4.8 µM in test [3] (Entamoeba histolytica) and 0.64 µM in test [4].

With `Cc1ncc([N+](=O)[O-])n1CCn1cc(-c2ccc(Cl)cc2)nn1` [Compound 4c, 1-(2-(2-methyl-5-nitro-1H-imidazol-1-yl)ethyl)-4-(4-chlorophenyl)-1H-1,2,3-triazole], the MIC in test [1] is over 32 µg/mL. Also, the EC50 was found to be 1.2 µM in test [2], 3.6 µM in test [3] (Entamoeba histolytica) and 0.89 µM in test [4].

Turning to `Cc1ncc([N+](=O)[O-])n1CCn1cc(-c2ccc(Cl)c(Cl)c2)nn1` [Compound 4d, 1-(2-(2-methyl-5-nitro-1H-imidazol-1-yl)ethyl)-4-(3,4-dichlorophenyl)-1H-1,2,3-triazole], the minimum inhibitory concentration (MIC) in test [1] is over 32 µg/mL. Besides, the EC50 in test [2] was determined as 2.5 µM; in test [3] (Entamoeba histolytica), 5.2 µM; in test [4], 1.1 µM.

For the molecule `Cc1ccc(-c2cn(CCn3c([N+](=O)[O-])cnc3C)nn2)cc1` [Compound 4e, 1-(2-(2-methyl-5-nitro-1H-imidazol-1-yl)ethyl)-4-(p-tolyl)-1H-1,2,3-triazole], the MIC in test [1] was over 32 µg/mL. The half-maximal effective concentration (EC50) in test [2] turned out to be 0.29 µM; in test [3] (Entamoeba histolytica), 3.7 µM; in test [4], 0.29 µM.

Regarding `COC(=O)c1cn(CCn2c([N+](=O)[O-])cnc2C)nn1` [Compound 4f, 1-(2-(2-methyl-5-nitro-1H-imidazol-1-yl)ethyl)-4-(methoxycarbonyl)-1H-1,2,3-triazole], the MIC in test [1] is over 32 µg/mL. Also, the EC50 in test [2] is 1.8 µM; in test [3] (Entamoeba histolytica), over 25 µM; in test [4] it was 2 µM.

Consider `Cc1ncc([N+](=O)[O-])n1CCn1cc(Cn2cccn2)nn1` [Compound 4g, 1-(2-(2-methyl-5-nitro-1H-imidazol-1-yl)ethyl)-4-((1H-pyrazol-1-yl)methyl)-1H-1,2,3-triazole], for which the MIC in test [1] was over 32 µg/mL. This molecule also yielded an EC50 in test [3] (Entamoeba histolytica) of over 25 µM.

As to `Cc1ncc([N+](=O)[O-])n1CCn1cc(-c2ccccn2)nn1` [Compound 4h, 1-(2-(2-methyl-5-nitro-1H-imidazol-1-yl)ethyl)-4-(2-pyridinyl)-1H-1,2,3-triazole.xTFA], in test [1], the MIC was over 32 µg/mL. Moreover, the EC50 stood at 0.28 µM in test [2], 4.6 µM in test [3] (Entamoeba histolytica) and 0.38 µM in test [4].

As for `Cc1ncc([N+](=O)[O-])n1CCn1cc(-c2cncnc2)nn1` [Compound 4i, 1-(2-(2-methyl-5-nitro-1H-imidazol-1-yl)ethyl)-4-(5-pyrimidinyl)-1H-1,2,3-triazole], in test [1], the MIC was over 32 µg/mL. The molecule further had a concentration giving a half-maximal response (EC50) in test [3] (Entamoeba histolytica) of over 25 µM.

For `Cc1ncc([N+](=O)[O-])n1CCn1cc(-c2ncccn2)nn1` [Compound 4j, 1-(2-(2-methyl-5-nitro-1H-imidazol-1-yl)ethyl)-4-(2-pyrimidinyl)-1H-1,2,3-triazole], the MIC in test [1] was over 32 µg/mL. For the same molecule, in test [3] (Entamoeba histolytica), the EC50 was over 25 µM.

For `Cc1ncc([N+](=O)[O-])n1CCn1cc(Cc2ccccc2)nn1` [Compound 4k, 1-(2-(2-methyl-5-nitro-1H-imidazol-1-yl)ethyl)-4-benzyl-1H-1,2,3-triazole], the MIC in test [1] is over 32 µg/mL. For the same molecule, the EC50 in test [2] worked out at 0.32 µM; in test [3] (Entamoeba histolytica) it was 1.9 µM; in test [4] it was 0.51 µM.

Consider `Cc1ncc([N+](=O)[O-])n1CCn1cc(C(O)c2ccccc2)nn1` (stereo not drawn) [Compound 4l, 1-(2-(2-methyl-5-nitro-1H-imidazol-1-yl)ethyl)-4-(1-phenyl-1-hydroxylmethyl)-1H-1,2,3-triazole], for which the minimum inhibitory concentration (MIC) in test [1] is over 32 µg/mL. The EC50 was 2.4 µM in test [2], over 25 µM in test [3] (Entamoeba histolytica) and 2.2 µM in test [4].

For `Cc1ncc([N+](=O)[O-])n1CCn1cc(CN(C)Cc2ccccc2)nn1` [Compound 4m, 1-(2-(2-methyl-5-nitro-1H-imidazol-1-yl)ethyl)-4-(N-benzyl, N-methylaminomethyl)-1H-1,2,3-triazole], in test [1], the MIC was over 32 µg/mL. Also, the concentration for a half-maximal effect (EC50) worked out at 0.71 µM in test [2], 4.6 µM in test [3] (Entamoeba histolytica) and 1.1 µM in test [4].

For `Cc1ncc([N+](=O)[O-])n1CCn1cc(CN2CCS(=O)(=O)CC2)nn1` [Compound 4o, 1-(2-(2-methyl-5-nitro-1H-imidazol-1-yl)ethyl)-4-((1,1-dioxothiomorpholin-4-yl)methyl)-1H-1,2,3-triazole], the minimal inhibitory concentration (MIC) in test [1] was over 32 µg/mL. For the same molecule, the half-maximal effective concentration (EC50) in test [3] (Entamoeba histolytica) was over 25 µM.

As to `Cc1ncc([N+](=O)[O-])n1CCn1cc(CCO)nn1` [Compound 4p, 1-(2-(2-methyl-5-nitro-1H-imidazol-1-yl)ethyl)-4-(2-hydroxyethyl)-1H-1,2,3-triazole], in test [1], the MIC is over 32 µg/mL. In addition, in test [3] (Entamoeba histolytica), the EC50 was over 25 µM.

As to `Cc1ncc([N+](=O)[O-])n1CCn1cc(CO)nn1` [Compound 4q, 1-(2-(2-methyl-5-nitro-1H-imidazol-1-yl)ethyl)-4-(hydroxymethyl)-1H-1,2,3-triazole], the MIC in test [1] is over 32 µg/mL. Further, the EC50 in test [3] (Entamoeba histolytica) was over 25 µM.

Regarding `Cc1ncc([N+](=O)[O-])n1CCn1cc(CCC(=O)O)nn1` [Compound 4r, sodium 1-(2-(2-methyl-5-nitro-1H-imidazol-1-yl)ethyl)-4-(carboxyethyl)-1H-1,2,3-triazole], the MIC in test [1] is over 32 µg/mL. In test [3] (Entamoeba histolytica), this molecule returned an EC50 of over 25 µM.

With `Cc1ncc([N+](=O)[O-])n1CCn1cc(C(=O)O)nn1` [Compound 4s, 1-(2-(2-methyl-5-nitro-1H-imidazol-1-yl)ethyl)-4-(carboxy)-1H-1,2,3-triazole], in test [1], the MIC is over 32 µg/mL. In test [3] (Entamoeba histolytica), this molecule gave an EC50 of over 25 µM.

Regarding `Cc1ncc([N+](=O)[O-])n1CCn1cc(CN)nn1.O=C(O)C(F)(F)F` [Compound 4t, 1-(2-(2-methyl-5-nitro-1H-imidazol-1-yl)ethyl)-4-(aminomethyl)-1H-1,2,3-triazole trifluoroacetate salt], the MIC in test [1] is over 32 µg/mL. The EC50 in test [3] (Entamoeba histolytica) is over 25 µM.

The values above are taken from publication PMC4550478, “Metronidazole-triazole conjugates: Activity against Clostridium difficile and parasites” (European Journal of Medicinal Chemistry, 2015).
